Measured values: patent US20250101102A1, “BISPECIFIC ANTIBODY AGAINST CD3 AND CD20 IN COMBINATION THERAPY FOR TREATING DIFFUSE LARGE B-CELL LYMPHOMA” (GENMAB A/S, priority 2022, published 2025)
Where two headings read alike, the source gives them in different places.

Experiments:
T cells = assay: T cell viability after pretreatment with CHP components; type: cell-based
[1] = test system: CD20-expressing Daudi cells; conditions: 333 ng/ml DuoBody-CD3xCD20, 4 donors
Procedure: Briefly, T cells were pre-incubated with cyclophosphamide, doxorubicin, or prednisone for 16 hours and subsequently used in a cytotoxicity assay with epcoritamab and CD20-expressing Daudi cells as target cells (E: T ratio 2:1), in which cyclophosphamide, doxorubicin, or prednisone was added in the same concentration as during pre-incubation, respectively. Data are presented as percent viable target cells (CD4-CD8-CD22+), normalized to medium control (no Ab, no CHP component).

[2] = test system: CD20-expressing Raji-luc tumor cells; conditions: NOD-SCID mice injected with Raji-luc tumor cells and PBMCs; even in the presence of an excess of IgG1-RTX-FEAR; cited from earlier work
[3] = test system: primary DLBCL and follicular lymphoma patient biopsies; conditions: cited from earlier work
[4] = test system: relapsed or refractory (R/R) B-NHL; highly refractory large B-cell lymphoma; conditions: cited from earlier work
[5] = T cells pre-incubated for 16 hours
[6] = highly refractory large B-cell lymphoma, n=157

O=P1(N(CCCl)CCCl)NCCCO1 (centres unmarked) [cyclophosphamide, 2H-1,3,2-Oxazaphosphorin-2-amine, N,N-bis(2-chloroethyl)tetrahydro-, 2-oxide]
T cell viability after pretreatment (T cells): did not impact T cell viability

COc1cccc2c1C(=O)c1c(O)c3c(c(O)c1C2=O)C[C@@](O)(C(=O)CO)C[C@@H]3O[C@H]1C[C@H](N)[C@H](O)[C@H](C)O1 [doxorubicin]
T cell viability after pretreatment (T cells; [5]): reduction in T cell viability

C[C@]12C=CC(=O)C=C1CC[C@@H]1[C@@H]2C(=O)C[C@@]2(C)[C@H]1CC[C@]2(O)C(=O)CO [prednisone, 17,21-dihydroxypregna-1,4-diene-3,11,20-trione]
T cell viability after pretreatment (T cells; [5]): did not impact T cell viability

epcoritamab: IgG1 bispecific CD3×CD20 antibody; heavy and light chain pairs SEQ ID NOs: 24/25 (CD3ε arm) and 26/27 (CD20 arm); CAS 2134641-34-0
viable B cells left after incubation ([1]; T cells pretreated with cyclophosphamide, FIG. 1A right panel): very low percentages of viable B cells | viable B cells left after incubation ([1]; T cells pretreated with prednisone, FIG. 1C right panel): very low percentages of viable B cells | tumor growth in the xenograft model [2]: effectively reduce tumor growth | T-cell-mediated cytotoxicity [3]: induced T-cell-mediated cytotoxicity | complete response (CR) rate [4, 6]: 39% | median duration of response (DOR) [4, 6]: 12 months | overall response rate (ORR) [4, 6]: 63% | safety profile ([4]; in vivo): manageable safety profile
